Test results published in patent US7115611B2, “Phenyl derivatives, their manufacture and use as pharmaceutical agents” (Hoffmann-la Roche Inc., priority 2003, dated 2006).

Row | melting point | Compound
1 | 131 to 133 °C | Cc1cc(OCc2ccc(-c3ccc(OC(F)(F)F)cc3)nc2C2CC2)ccc1OC(C)(C)C(=O)O [Example 145, 2-{4-[2-Cyclopropyl-6-(4-trifluoromethoxy-phenyl)-pyridin-3-ylmethoxy]-2-methyl-phenoxy}-2-methyl-propionic acid]
2 | 179 to 181 °C (dec.) | Cc1cc(OCc2cnc(-c3ccc(OC(F)(F)F)cc3)cc2Cl)ccc1OC(C)(C)C(=O)O [Example 109, 2-{4-[4-Chloro-6-(4-trifluoromethoxy-phenyl)-pyridin-3-ylmethoxy]-2-methyl-phenoxy}-2-methyl-propionic acid]
3 | 72 to 73 °C | COCCCc1cc(N(C)Cc2ccc(-c3ccc(C(F)(F)F)cc3)nc2C)ccc1OCC(=O)O [Example 1, (2-(3-Methoxy-propyl)-4-{methyl-[2-methyl-6-(4-trifluoromethyl-phenyl)-pyridin-3-ylmethyl]-amino}-phenoxy)-acetic acid]
4 | 122 to 124 °C (dec.) | CCOCCc1nc(-c2ccc(C(F)(F)F)nc2)ncc1COc1ccc(OC(C)(C)C(=O)O)c(C)c1 [Example 101, 2-{4-[4-(2-Ethoxy-ethyl)-2-(6-trifluoromethyl-pyridin-3-yl)-pyrimidin-5-ylmethoxy]-2-methyl-phenoxy}-2-methyl-propionic acid]
5 | 149 to 151 °C | Cc1cc(OCc2ccc(-c3ccc(OC(F)(F)F)cc3)nc2C)ccc1OC(C)(C)C(=O)O [Example 39, 2-Methyl-2-{2-methyl-4-[2-methyl-6-(4-trifluoromethoxy-phenyl)-pyridin-3-ylmethoxy]-phenoxy}-propionic acid]
6 | 174 to 176 °C | Cc1cc(N(C)Cc2ccc(-c3ccc(Cl)cc3)nc2)ccc1OCC(=O)O [Example 12, (4-{[6-(4-Chloro-phenyl)-pyridin-3-ylmethyl]-methyl-amino}-2-methyl-phenoxy)-acetic acid]
7 | 149 to 151 °C (dec.) | Cc1cc(OCc2cnc(-c3ccc(C(F)(F)F)cc3)nc2C(F)(F)F)ccc1OC(C)(C)C(=O)O [Example 107, 2-Methyl-2-{2-methyl-4-[4-trifluoromethyl-2-(4-trifluoromethyl-phenyl)-pyrimidin-5-ylmethoxy]-phenoxy}-propionic acid]
8 | 148 to 149 °C | Cc1cc(OCc2cnc(-c3ccc(C(F)(F)F)cc3)cc2C(F)(F)F)ccc1OC(C)(C)C(=O)O [Example 108, 2-Methyl-2-{2-methyl-4-[4-trifluoromethyl-6-(4-trifluoromethyl-phenyl)-pyridin-3-ylmethoxy]-phenoxy}-propionic acid]
9 | 137 to 138 °C | Cc1cc(N(C)Cc2ccc(-c3ccc(C(F)(F)F)cc3)nc2C)cc(C)c1OCC(=O)O [Example 7, (2,6-Dimethyl-4-{methyl-[2-methyl-6-(4-trifluoromethyl-phenyl)-pyridin-3-ylmethyl]-amino}-phenoxy)-acetic acid]
10 | 199 °C | Cc1cc(N(C)Cc2ccc(-c3ccc(C(F)(F)F)cc3)nc2)ccc1OCC(=O)O [Example 15, (2-Methyl-4-{methyl-[6-(4-trifluoromethyl-phenyl)-pyridin-3-ylmethyl]-amino}-phenoxy)-acetic acid]
11 | 137 to 138 °C | Cc1cc(N(C)Cc2ccc(-c3ccc(OC(F)(F)F)cc3)nc2)ccc1OCC(=O)O [Example 13, (2-Methyl-4-{methyl-[6-(4-trifluoromethoxy-phenyl)-pyridin-3-ylmethyl]-amino}-phenoxy)-acetic acid]
12 | 164 to 165 °C | Cc1cc(OCc2ccc(-c3ccc(C(F)(F)F)cc3)nc2C)ccc1OC(C)(C)C(=O)O [Example 34, 2-Methyl-2-{2-methyl-4-[2-methyl-6-(4-trifluoromethyl-phenyl)-pyridin-3-ylmethoxy]-phenoxy}-propionic acid]
13 | 170 to 171 °C | Cc1cc(OCc2ccc(-c3ccc(C(F)(F)F)cc3)nc2C2CC2)ccc1OC(C)(C)C(=O)O [Example 40, 2-{4-[2-Cyclopropyl-6-(4-trifluoromethyl-phenyl)-pyridin-3-ylmethoxy]-2-methyl-phenoxy}-2-methyl-propionic acid]
14 | 127 to 128 °C (dec.) | Cc1cc(SCc2cnc(-c3ccc(OC(F)(F)F)cc3)nc2C2CC2)ccc1OC(C)(C)C(=O)O [Example 142, 2-{4-[4-Cyclopropyl-2-(4-trifluoromethoxy-phenyl)-pyrimidin-5-ylmethylsulfanyl]-2-methyl-phenoxy}-2-methyl-propionic acid]
15 | 121 to 122 °C | COCc1nc(-c2ccc(C(F)(F)F)cc2)ccc1COc1ccc(OC(C)(C)C(=O)O)c(C)c1 [Example 45, 2-{4-[2-Methoxymethyl-6-(4-trifluoromethyl-phenyl)-pyridin-3-ylmethoxy]-2-methyl-phenoxy}-2-methyl-propionic acid]
16 | 149 to 151 °C | Cc1cc(OCc2ccc(-c3ccc(C(F)(F)F)cc3)nc2)ccc1OC(C)(C)C(=O)O [Example 9, 2-Methyl-2-{2-methyl-4-[6-(4-trifluoromethyl-phenyl)-pyridin-3-ylmethoxy]-phenoxy}-propionic acid]

Row | melting point | Compound
17 | 119.5 to 120 °C | COCCc1nc(-c2ccc(C(F)(F)F)cc2)ncc1COc1ccc(OC(C)(C)C(=O)O)c(C)c1 [Example 140, 2-{4-[4-(2-Methoxy-ethyl)-2-(4-trifluoromethyl-phenyl)-pyrimidin-5-ylmethoxy]-2-methyl-phenoxy}-2-methyl-propionic acid]
18 | 177.5 to 178 °C | CC(C)(Oc1ccc(OCc2cnc(-c3ccc(C(F)(F)F)cc3)nc2C2CC2)c(F)c1)C(=O)O [Example 141, 2-{4-[4-Cyclopropyl-2-(4-trifluoromethyl-phenyl)-pyrimidin-5-ylmethoxy]-3-fluoro-phenoxy}-2-methyl-propionic acid]
19 | 214 to 215 °C (dec.) | Cc1c(OCc2cnc(-c3ccc(C(F)(F)F)cc3)nc2C2CC2)ccc(OC(C)(C)C(=O)O)c1C [Example 106, 2-{4-[4-Cyclopropyl-2-(4-trifluoromethyl-phenyl)-pyrimidin-5-ylmethoxy]-2,3-dimethyl-phenoxy}-2-methyl-propionic acid]
20 | 72 to 76 °C | COCCCc1cc(N(C)Cc2ccc(-c3ccc(C(F)(F)F)cc3)nc2)ccc1OCC(=O)O [Example 16, (2-(3-Methoxy-propyl)-4-{methyl-[6-(4-trifluoromethyl-phenyl)-pyridin-3-ylmethyl]-amino}-phenoxy)-acetic acid]
21 | 168 to 169 °C | Cc1cc(OCc2ccc(-c3ccc(C(F)(F)F)cc3)nc2C)ccc1SCC(=O)O [Example 146, {2-Methyl-4-[2-methyl-6-(4-trifluoromethyl-phenyl)-pyridin-3-ylmethoxy]-phenylsulfanyl}-acetic acid]
22 | 126 to 128 °C | CCC(Sc1ccc(OCC(=O)O)c(C)c1)c1ccc(-c2ccc(C(F)(F)F)cc2)nc1C (racemic) [Example 18, [rac]-(2-Methyl-4-{1-[2-methyl-6-(4-trifluoromethyl-phenyl)-pyridin-3-yl]-propylsulfanyl}-phenoxy)-acetic acid]
23 | 120 to 121 °C | COCc1nc(-c2ccc(C(F)(F)F)cc2)ncc1COc1ccc(OC(C)(C)C(=O)O)c(C)c1 [Example 104, 2-{4-[4-Methoxymethyl-2-(4-trifluoromethyl-phenyl)-pyrimidin-5-ylmethoxy]-2-methyl-phenoxy}-2-methyl-propionic acid]
24 | 187 to 188 °C (dec.) | Cc1cc(OCc2cnc(-c3ccc(C(F)(F)F)nc3)nc2CCO)ccc1OC(C)(C)C(=O)O [Example 103, 2-{4-[4-(2-Hydroxy-ethyl)-2-(6-trifluoromethyl-pyridin-3-yl)-pyrimidin-5-ylmethoxy]-2-methyl-phenoxy}-2-methyl-propionic acid]
25 | 175 to 176 °C | Cc1cc(OCc2ccc(-c3ccc(C(F)(F)F)c(F)c3)nc2C)ccc1OC(C)(C)C(=O)O [Example 38, 2-{4-[6-(3-Fluoro-4-trifluoromethyl-phenyl)-2-methyl-pyridin-3-ylmethoxy]-2-methyl-phenoxy}-2-methyl-propionic acid]
26 | 146 to 148 °C | Cc1cc(OCc2ccc(-c3ccc(OC(F)(F)F)cc3)nc2)ccc1OC(C)(C)C(=O)O [Example 10, 2-Methyl-2-{2-methyl-4-[6-(4-trifluoromethoxy-phenyl)-pyridin-3-ylmethoxy]-phenoxy}-propionic acid]
27 | 191 to 192 °C | Cc1cc(OCc2ccc(-c3ccc(C(F)(F)F)cc3)nn2)ccc1OC(C)(C)C(=O)O [Example 44, 2-Methyl-2-{2-methyl-4-[6-(4-trifluoromethyl-phenyl)-pyridazin-3-ylmethoxy]-phenoxy]-propionic acid]
28 | 141 to 143 °C | Cc1cc(OCc2ccc(-c3ccc(F)c(C(F)(F)F)c3)nc2C)ccc1OC(C)(C)C(=O)O [Example 24, 2-{4-[6-(4-Fluoro-3-trifluoromethyl-phenyl)-2-methyl-pyridin-3-ylmethoxy]-2-methyl-phenoxy}-2-methyl-propionic acid]
29 | 129 to 131 °C | Cc1cc(SCc2cnc(-c3ccc(C(F)(F)F)cc3)nc2C2CC2)ccc1OC(C)(C)C(=O)O [Example 144, 2-{4-[4-Cyclopropyl-2-(4-trifluoromethyl-phenyl)-pyrimidin-5-ylmethylsulfanyl]-2-methyl-phenoxy}-2-methyl-propionic acid]
30 | 185 to 185.5 °C | Cc1cc(OCc2cnc(-c3ccc(C(F)(F)F)nc3)nc2C2CC2)ccc1OC(C)(C)C(=O)O [Example 105, 2-{4-[4-Cyclopropyl-2-(6-trifluoromethyl-pyridin-3-yl)-pyrimidin-5-ylmethoxy]-2-methyl-phenoxy}-2-methyl-propionic acid]
31 | 155 to 155.5 °C | Cc1cc(OCc2cnc(-c3ccc(C(F)(F)F)cc3)nc2CCO)ccc1OC(C)(C)C(=O)O [Example 110, 2-{4-[4-(2-Hydroxy-ethyl)-2-(4-trifluoromethyl-phenyl)-pyrimidin-5-ylmethoxy]-2-methyl-phenoxy}-2-methyl-propionic acid]
32 | 153.5 to 154.5 °C | Cc1cc(OCc2cnc(-c3ccc(OC(F)(F)F)cc3)nc2C(F)(F)F)ccc1OC(C)(C)C(=O)O [Example 111, 2-Methyl-2-{2-methyl-4-[2-(4-trifluoromethoxy-phenyl)-4-trifluoromethyl-pyrimidin-5-ylmethoxy]-phenoxy}-propionic acid]
